Test results from PMC6747087, “Characterization of Tachyplesin Peptides and Their Cyclized Analogues to Improve Antimicrobial and Anticancer Properties” (International Journal of Molecular Sciences, 2019).
Read-outs that look alike come from different tables or passages of the source. Residues, ends and D or L forms follow the SMILES beside them.

Assays:
[1] = Cytotoxicity assay (resazurin); type: cell-based, Human; conditions: ± SEM, n ≥ 3; for CC50 at 2 h: human
Experimental: Cells were grown in cell culture flasks and incubated in a humidified atmosphere (5% CO2, 37 °C). The cancer cell lines HeLa and the control cell line HaCaT were grown in a DMEM medium supplemented with 1% (v/v) penicillin/streptomycin and 10% (v/v) fetal bovine serum (FBS). The cancer cell lines MM96L, HT144 and WM164 were grown in a RPMI medium supplemented with 1% (v/v) penicillin/[…], 10% (v/v) FBS, 20 mM L-glutamine, and 10 mM sodium pyruvate. Cell cultures were maintained by dilution upon reaching confluence, each 48–72 h. More information about the cell lines is available in Tables S2 and S3.
(§1) Cells were seeded into 96-well flat-bottom plates at 5 × 10^3 cells/well and incubated overnight. The medium was removed and replaced with 90 µL serum-free medium, 10 µL of 10x concentrated peptide solutions in PBS were added. PBS was added as blank and 0.1% (v/v) Triton X-100 was used to establish 100% of cell death. After 2 h incubation at 37 °C, 10 µL of filtered 0.05% (w/v) resazurin solution was added to each well [70]. Resazurin is converted to the pink and fluorescent compound resorufin by viable cells. After incubation overnight, the fluorescence intensity (λex = 565 nm and λem = 584 nm) was measured with the Tecan infinite M1000Pro multiplate reader (Männedorf, Switzerland).

[2] = Activity against preformed biofilm (resazurin metabolic activity); type: cell-based, Staphylococcus aureus; conditions: 24 h preformed biofilm, 4 h peptide treatment, read-out: CC50 (reduction of 50% of the metabolically active cell population)
Experimental: (§2) S. aureus ATCC 6538 (1 × 10^6 cfu/mL) was cultured in Tryptic Soy Broth, containing 0.25% (w/v) glucose and incubated in 96-well microtiter flat-bottomed polystyrene plates for 24 h at 37 °C. Preformed biofilms were then washed with Mueller Hinton Broth to remove non-adherent cells. Two-fold serial dilutions of each peptide (highest concentration tested was 32 µM and lowest was 0.25 µM) were added to the biofilms for 4 h. Untreated 24 h preformed biofilms were used as a control. The metabolic activity of biofilm-embedded cells was determined using a resazurin reduction fluorometric assay as previously described.

[3] = test system: S. aureus ATCC 6538 biofilm; assay: as above; type: cell-based, Staphylococcus aureus; conditions: cells remaining metabolically active at 32 µM, the highest concentration tested
Experimental: as §2

[4] = test system: melanoma cell lines MM96L, HT144 and WM164; assay: Cytotoxicity and selectivity (activity-toxicity index) for melanoma cell lines; type: cell-based; conditions: MHC inducing 10% (lower value) or 50% (higher value) cell death in human RBCs over median CC50 of melanoma lines
Experimental: as §1
The selectivity was calculated through the activity-toxicity index (ATI). ATI = MHC/MCC50, with MHC being the minimal concentration necessary to induce 10% or 50% cell death in human red blood cells and MCC50 the median of cytotoxic concentrations (CC50) of all tested melanoma cell lines.

[5] = test system: E. coli DC2 CGSC 7139; assay: MIC against planktonic bacteria (resazurin); type: cell-based, Escherichia coli; conditions: Mueller Hinton Broth
Experimental: (§3) S. aureus ATCC 25923, S. aureus ATCC 6538, E. coli ATCC 25922, and E. coli DC2 CGSC 7139 were grown in Mueller Hinton Broth (Sigma Aldrich, St. Luis, USA). Bacterial cultures in the exponential growth phase were diluted to an OD600nm of 0.001 and seeded into 96-well plates. Peptides at different concentrations, starting at 64 µM and with two-fold serial dilutions (i.e., 64, 32, 16, 8, 4, 2, 1, 0.5, 0.25, 0.125 and 0.0625 µM), were incubated with cells; 0.05% (v/v) resazurin was added to the cultures the next day and the conversion to resorufin was measured after 1 h of incubation at 37 °C using a 565 nm excitation and 584 nm emission wavelength, as above.

[6] = test system: E. coli ATCC 25922; assay: MIC against planktonic bacteria (resazurin); type: cell-based, Escherichia coli; conditions: Mueller Hinton Broth
Experimental: as §3

[7] = test system: S. aureus ATCC 25923; assay: MIC against planktonic bacteria (resazurin); type: cell-based, Staphylococcus aureus; conditions: Mueller Hinton Broth
Experimental: as §3

[8] = test system: S. aureus ATCC 6538; assay: MIC against planktonic bacteria (resazurin); type: cell-based, Staphylococcus aureus; conditions: Mueller Hinton Broth
Experimental: as §3

[9] = test system: Pseudomonas aeruginosa biofilm; parameters: method as in PMID 18022289; conditions: rat model of ureteral stent infection; cited from earlier work
[10] = Hemolytic activity against human red blood cells; type: cell-based; conditions: at 64 µM peptide, human RBCs, read-out: RBCs lysed (hemolysis)
Experimental: (§4) A small amount of blood was collected from three healthy human donors. The blood was immediately diluted in PBS and centrifuged 4–5 times for 1 min at 4000 rpm to wash and separate the human red blood cells (RBCs). RBCs suspension (0.25% (v/v) in PBS) was incubated with peptides with two-fold serial dilutions of the peptide (highest concentration tested was 128 µM, and the lowest was 0.25 µM) in a 96-well plate. Melittin, a membrane disruptive peptide, was used as control. The plates were incubated for 1 h at 37 °C. After incubation, the plates were centrifuged for 5 min at 1000 rpm to pellet any non-lysed RBCs. A total of 100 µL of the supernatant were transferred to a new 96-well plate. The hemoglobin released into the supernatant from lysed cells was measured by absorbance at 415 nm using the Tecan infinite M1000Pro multiplate reader (Männedorf, Switzerland).

[11] = test system: human red blood cells (RBCs); assay: Hemolytic activity against human red blood cells; type: cell-based; conditions: human RBCs 0.25% (v/v), 1 h, 37 °C; mean ± SEM
Experimental: as §4

[12] = mouse serum, 2 h; cited from earlier work
[13] = human serum, 2 h; cited from earlier work
[14] = in vitro; conditions: human, 25% (v/v) human serum
Experimental: The serum stability assay was carried out as previously described with some modifications. Briefly, tachyplesin variants were incubated in 25% (v/v) human serum diluted in phosphate-buffered saline (PBS) at a final concentration of 50 µM at 37 °C. Triplicates were collected at time 0 h and 24 h and the serum proteins were precipitated with acetonitrile (1:3 ratio) supplemented with 3% TFA. Samples were kept on ice for 10 min before centrifugation at 17,000× g for 10 min at 4 °C. The peptide containing supernatant of each sample was harvested and quantified using RP-HPLC (10 to 45% solvent B, 1%/min gradient). The percentage of peptide stability in human serum was calculated by comparing the area of the peptide peak obtained at 24 h to that at time 0 h. A linear peptide containing 18 amino acid residues ([…]) was included as a control susceptible to proteolytic degradation.

[15] = HT144, 2 h peptide in serum-free medium
[16] = WM164, 2 h peptide in serum-free medium
[17] = HaCaT non-cancerous control, 2 h peptide in serum-free medium
[18] = HeLa, 2 h peptide in serum-free medium
[19] = MM96L, 2 h peptide in serum-free medium

Compound	MIC [5] [µM]	MIC [6] [µM]	MIC [7] [µM]	MIC [8] [µM]	HC50 (concentration required to induce 50% lysis in RBCs) [11] [µM]	CC50 [1, 15] [nM]	CC50 [1, 17] [nM]	CC50 [1, 18] [nM]	CC50 [1, 19] [nM]	CC50 [1, 16] [nM]	Concentration reducing biofilm metabolic activity by 50% [2] [µM]	hemolysis [10] [%]	also measured
CC[C@H](C)[C@@H]1NC(=O)CNC(=O)[C@H](CCCNC(=N)N)NC(=O)[C@H](Cc2ccc(O)cc2)NC(=O)[C@@H]2CSSC[C@H](NC1=O)C(=O)N[C@@H](Cc1ccc(O)cc1)C(=O)N[C@@H](CCCNC(=N)N)C(=O)N[C@@H](CCCCN)C(=O)N[C@H](C(=O)N[C@@H](CCCNC(=N)N)C(N)=O)CSSC[C@H](NC(=O)[C@H](Cc1c[nH]c3ccccc13)NC(=O)[C@@H](N)CCCCN)C(=O)N[C@@H](Cc1ccccc1)C(=O)N[C@@H](CCCNC(=N)N)C(=O)N[C@@H](C(C)C)C(=O)N2 [TIII, Tachyplesin III] (HELM PEPTIDE1{K.W.C.F.R.V.C.Y.R.G.I.C.Y.R.K.C.R.[am]}$PEPTIDE1,PEPTIDE1,3:R3-16:R3|PEPTIDE1,PEPTIDE1,7:R3-12:R3$$$V2.0; N-terminus assumed)	0.25 to 0.5	0.0625 to 0.5	1 to 4	4 to 8	86.4 ± 12.2								CC50 at 2 h ([1]; HaCaT keratinocyte cells, HaCaT non-cancerous control, 2 h peptide in serum-free medium): 7300 ± 500 nM; CC50 at 2 h ([1]; HeLa cervical cancer cells, 2 h peptide in serum-free medium): 21700 ± 1100 nM; CC50 at 2 h ([1]; MM96L melanoma cells, 2 h peptide in serum-free medium): 1800 ± 100 nM; CC50 at 2 h [1, 15]: 2000 ± 100 nM; CC50 at 2 h [1, 16]: 1700 ± 100 nM; Concentration reducing biofilm metabolic activity by 50% at 4 h ([2]; Staphylococcus aureus, preformed S. aureus biofilm): 24.2 ± 4.1 µM; Metabolically Active Cells [3]: 43.3 ± 4.1%; Melanoma Selectivity (activity-toxicity index, ATI = MHC/MCC50) [4]: 5–48; prevention of biofilm formation [9]: prevent the formation of a Pseudomonas aeruginosa biofilm; hemolysis at 1 h ([10]; red blood cells in PBS): 41%
CC[C@H](C)[C@@H]1NC(=O)CNC(=O)[C@H](CCCNC(=N)N)NC(=O)[C@H](Cc2ccc(O)cc2)NC(=O)[C@@H]2CSSC[C@H](NC1=O)C(=O)N[C@@H](Cc1ccc(O)cc1)C(=O)N[C@@H](CCCNC(=N)N)C(=O)N[C@@H](CCCCN)C(=O)N[C@H](C(=O)N[C@@H](CCCNC(=N)N)C(N)=O)CSSC[C@H](NC(=O)[C@H](Cc1c[nH]c3ccccc13)NC(=O)[C@@H](N)CCCNC(=N)N)C(=O)N[C@@H](Cc1ccccc1)C(=O)N[C@@H](CCCNC(=N)N)C(=O)N[C@@H](C(C)C)C(=O)N2 [TII, Tachyplesin II] (HELM PEPTIDE1{R.W.C.F.R.V.C.Y.R.G.I.C.Y.R.K.C.R.[am]}$PEPTIDE1,PEPTIDE1,3:R3-16:R3|PEPTIDE1,PEPTIDE1,7:R3-12:R3$$$V2.0)	0.5 to 1	0.125 to 0.5	1 to 4	4 to 8	55.4 ± 6.6	2000 ± 100	3700 ± 200	18000 ± 3900	1600 ± 100	1600 ± 100	23.1 ± 2.9	56	
[H][C@]12CSSC[C@]([H])(NC(=O)[C@]([H])([C@@H](C)CC)NC(=O)CNC(=O)[C@H](CCCNC(=N)N)NC(=O)[C@H](Cc3ccc(O)cc3)NC1=O)C(=O)N[C@@H](Cc1ccc(O)cc1)C(=O)N[C@@H](CCCNC(=N)N)C(=O)N[C@@H](CCCNC(=N)N)C(=O)N[C@H](C(=O)N[C@@H](CCCNC(=N)N)C(N)=O)CSSC[C@H](NC(=O)[C@H](Cc1c[nH]c3ccccc13)NC(=O)[C@@H](N)CCCCN)C(=O)N[C@@H](Cc1ccccc1)C(=O)N[C@@H](CCCNC(=N)N)C(=O)N[C@@H](C(C)C)C(=O)N2 [TI, Tachyplesin I] (HELM PEPTIDE1{K.W.C.F.R.V.C.Y.R.G.I.C.Y.R.R.C.R.[am]}$PEPTIDE1,PEPTIDE1,3:R3-16:R3|PEPTIDE1,PEPTIDE1,7:R3-12:R3$$$V2.0)	0.5 to 1	0.0625 to 0.5	1 to 4	4 to 8	34.9 ± 2.8	1700 ± 200	11600 ± 1600	13100 ± 1200	1500 ± 100	2500 ± 100	21.5 ± 2.2	66	stability in serum [12]: completely stable; stability in serum [13]: completely stable; remaining at 24 h, 50 µM [14]: 25%
